Patent US10350210B2, “EGFR and ALK dual inhibitor” (PRECEDO PHARMACEUTICALS CO., LTD, priority 2015, dated 2019)

How the values were obtained:
BaF3-TEL-ALK = assay: Cell growth (Cell Titer-Glo viability), BaF3-TEL-ALK; format: cell-based; settings: Mus musculus; BaF3-TEL-ALK (stably expressing ALK kinase), 72 hrs
How it was run: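 BaF3, TEL-kinase fusion, IL-3-free, transgene-driven growth; HCC827 = EGFR del19, NCI-H3255 = EGFR L858R. Viable cells via CellTiter-Glo, plate-reader luminescence.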

CHO = assay: Cell growth (Cell Titer-Glo viability), CHO; format: cell-based, Chinese hamster; settings: Cricetulus griseus; CHO Chinese hamster ovary cell, 72 hrs; read-out: GI50
H3122 = assay: Effect on cell apoptosis (Western Blot, PARP and Caspase 3 cleavage), H3122; format: cell-based, human; settings: H3122 (ALK gene), 24 hours
From the text: In order to confirm whether the death of cells is through apoptosis or necrosis after administration of drugs, non-small cell lung cancer cell A549 (expressing wild-type EGFR gene), non-small cell lung cancer cell line H1975 (expressing EGFR L858R/T790M double mutant gene), non-small cell lung cancer cell line H3255 (expressing EGFR L858R mutant gene), non-small cell lung cancer cell line H3122 (expressing ALK gene) cell line, and non-small cell lung cancer cell line PC-9 (expressing EGFR delE746_A750 mutant gene) were tested for effect of Compound 1 on cleavage of poly ADP-ribose polymerase PARP which is a DNA repair enzyme and Caspase 3, which were closely related to cell apoptosis. […] Western Blot was used to detect the effect of various concentrations of drugs at various time points on cleavage of poly ADP-ribose polymerase PARP which is a DNA repair enzyme and Caspase 3.

ALK protein (H3122) = assay: Effect on signaling pathway in cells, H3122; format: cell-based, human; settings: H3122 (expressing ALK gene), 4 h
Description: In non-small cell lung cancer cell line H3122 (expressing ALK gene), the effect of Compound 1 on other protein kinases that are closely related to ALK such as Stat3, Ras, MEK1/2, ErK, mTOR, PI3K, JAK3, AKT in this cell was assessed by assaying a number of cellular biochemical and functional endpoints. […] The effect of Compound 1 on phosphorylation of Stat3 Y705, Ras, MEK1/2S217/221, Erk T202/204, mTOR, PI3K, JAK3Tyr980/981, AKT T308, AKT 5473 in this cell line was assayed (FIG. 1e).
In non-small cell lung cancer cell line H3122 (expressing ALK gene), the effect of Compound 10 on ALK and other protein kinases that are closely related to ALK such as Stat3, Ras, MEK1/2, ErK, mTOR, PI3K, JAK3, AKT in this cell was assessed by assaying a number of cellular biochemical and functional endpoints. The lung cancer cell H3122 (expressing ALK gene) was treated with different concentrations of 0 μM, 0.03 μM, 0.1 μM, 0.3 μM, 1 μM, 3 μM of Compound 10 (in DMSO), 1 μM of AZD9291 (in DMSO) (purchased from Shanghai Haoyuan Chemexpress Co., Ltd.), 1 μM of LDK378 (in DMSO) (purchased from Shanghai Haoyuan Chemexpress Co., Ltd.), and blank control (DMSO) for 4 h, and the samples were collected. The effect of Compound 10 on phosphorylation of ALK Y1604, Stat3 Y705, Ras, MEK1/25217/221, Erk T202/204, mTOR, PI3K, JAK3 Tyr980/981, AKT T308, AKT S473 in this cell line was assayed (FIG. 1f).

SMILES | GI50 (BaF3-TEL-ALK) | GI50 (CHO) | concentration at which evident cleavage of PARP and Caspase 3 could be observed (H3122) | concentration able to significantly inhibit the phosphorylation of ALK protein (ALK protein (H3122)) | concentration that almost completely inhibited the phosphorylation of ALK protein (ALK protein (H3122)) | effects on other protein kinases closely related to ALK protein (Stat3, Ras, MEK1/2, ErK, JAK3, AKT) (ALK protein (H3122))
C=CC(=O)Nc1cc(Nc2ncc(Cl)c(Nc3ccccc3S(=O)(=O)C(C)C)n2)c(OC)cc1N1CCCN(C)CC1 [Compound 10, N-(5-(5-chloro-4-(2-(isopropylsulfonyl)phenylamino)pyrimidin-2-ylamino)-4-methoxy-2-(4-methyl-1,4-homopiperazin-1-yl)phenyl)acrylamide] | 3 nM | 990 nM | 1 µM | 0.03 µM | 0.1 µM | evident effects
C=CC(=O)Nc1cc(Nc2ncc(Cl)c(Nc3ccccc3S(=O)(=O)C(C)C)n2)c(OC)cc1N1CCN(CC)CC1 [Compound 1, N-(5-(5-chloro-4-(2-(isopropylsulfonyl)phenylamino)pyrimidin-2-ylamino)-2-(4-ethylpiperazin-1-yl)-4-methoxyphenyl)acrylamide] | < 0.3 nM | 200 nM | 0.03 µM | 0.1 µM | 0.3 µM | evident effects
